Assay results taken from PubChem BioAssay (NCI).
“And” between values parts separate entries of the source, which are not always exact repeats. Equal values may be shown once.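 In this assay, cells in 96-well plates receive the compound at five concentrations for 48 hours. Endpoints are linearly interpolated between the surrounding concentrations. GI50 is the concentration that inhibits growth by half. The concentration for full growth arrest is given as TGI.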

Columns and labels:
Assay in all cases: NCI tumour cell line growth inhibition, 48 h
OVCAR-8 ovarian = test system: OVCAR-8 ovarian
SK-MEL-2 melanoma = test system: SK-MEL-2 melanoma
SN12C renal = test system: SN12C renal
DU-145 prostate = test system: DU-145 prostate
SK-OV-3 ovarian = test system: SK-OV-3 ovarian
MDA-MB-435 = test system: MDA-MB-435
SR leukemia = test system: SR leukemia
PC-3 prostate = test system: PC-3 prostate

SMILES	GI50 (OVCAR-8 ovarian)	TGI (OVCAR-8 ovarian)	GI50 (SK-MEL-2 melanoma)	TGI (SK-MEL-2 melanoma)	GI50 (SN12C renal)	TGI (SN12C renal) [µM]	GI50 (DU-145 prostate)	TGI (DU-145 prostate)	GI50 (SK-OV-3 ovarian)	TGI (SK-OV-3 ovarian)	GI50 (MDA-MB-435)	TGI (MDA-MB-435) [µM]	GI50 (SR leukemia)	TGI (SR leukemia) [µM]	GI50 (PC-3 prostate)	TGI (PC-3 prostate) [µM]
COc1ccc2c(c1)C(=O)c1c-2c(Nc2ccccc2OC)nc2ccccc12	> 100 µM	> 100 µM	> 100 µM	> 100 µM	42.1 µM	> 100	> 100 µM	> 100 µM	> 100 µM	> 100 µM	> 100 µM	> 100	> 100 µM	> 100	> 100 µM	> 100
N#CC1(c2ccc(NC(=O)c3cccnc3NCc3ccncc3)cc2)CCCC1	21.1 µM	> 83.3 µM	11.9 µM	32 µM	18 µM	> 100	18.8 µM	> 100 µM	21.7 µM	> 84.1 µM	13.4 µM	37.4	13 µM	39.5	15.5 µM	> 64.3
CC(Br)C(=O)NC(CO)C(=O)O (stereo not drawn)	–	> 100 µM	–	> 100 µM	–	> 100	–	> 100 µM	–	> 100 µM	–	> 100	–	> 100	–	> 100
CC(C)(CO)CNC(=O)c1ccc2[nH]c(O)c(N=Nc3ccc(S(N)(=O)=O)cc3)c2c1	> 25 µM	> 25 µM	> 25 µM	> 25 µM	> 25 µM	> 25	> 25 µM	> 25 µM	> 25 µM	> 25 µM	> 25 µM	> 25	> 25 µM	> 25	> 25 µM	> 25
COc1ccc2c(c1)c(-c1nc(-c3c[nH]c4ncccc34)cs1)cn2CCCN1CCOCC1	–	–	1.88 µM	3.77 µM	3.16 µM	15.6	3.15 µM	11 µM	2.83 µM	8.28 µM	1.75 µM	3.37	2.3 µM	7	2.48 µM	8.68
COc1ccc2c(N)ncc(C#Cc3cc(C(=O)Nc4ccc(CN5CCN(C)CC5)c(C(F)(F)F)c4)cnc3C)c2c1	0.861 µM	2.71 µM	0.771 µM	2.67 µM	0.594 µM	1.52	0.419 µM	0.874 µM	1.7 µM	15 µM	0.647 µM	3.1	0.649 µM	1.97	0.924 µM	3.56
CN(C)CCCC1(c2ccc(F)cc2)OCc2cc(-c3cccc4[nH]ccc34)ccc21 (stereo not drawn)	1.86 µM	3.7 µM	1.79 µM	3.59 µM	1.55 µM	2.96	1.77 µM	3.23 µM	1.75 µM	3.25 µM	1.76 µM	3.31	0.973 µM	2.97	1.58 µM	3.31
Cc1ccc(O)cc1Nc1ccnc2ccc(S(C)(=O)=O)cc12	3.53 µM	16.4 µM	6.91 µM	24.9 µM	2.82 µM	> 25	7.23 µM	> 20.4 µM	3.22 µM	> 25 µM	4.92 µM	> 25	> 25 µM	> 25	4.2 µM	> 25
CCCCCOc1ccc(/C=N/Nc2cc(C)nc3ccc(Cl)cc23)cc1	1.98 µM	4.23 µM	1.7 µM	3.17 µM	1.71 µM	3.22	1.88 µM	3.7 µM	1.65 µM	3.08 µM	1.75 µM	3.21	0.369 µM	1.73	1.61 µM	3.1
C[C@]12CC[C@H]3[C@@H](CCC4=CC(=O)CC[C@@]43C)[C@@H]1CC[C@@H]2c1csc(N)n1	3.42 µM	26.7 µM	14.5 µM	32.7 µM	3.57 µM	24.5	6.72 µM	24.5 µM	12.5 µM	33.3 µM	2.63 µM	10.6	2.12 µM	12.6	2.88 µM	47.1
O=C1CC(c2ccccc2)Oc2ccccc21 (stereo not drawn)	–	> 100 µM	–	86.7 µM	–	–	–	> 100 µM	–	> 100 µM	–	> 100	–	50.6	–	> 100
O=C(Nc1cccc(-n2cc(-c3ccncc3)c(-c3cc(O)cc(Cl)c3)n2)c1)c1ccc(N2CCOCC2)c(C(F)(F)F)c1	1.64 µM	> 100 µM	2.34 µM	13.2 µM	6.37 µM	> 100	5.65 µM	> 100 µM	9.63 µM	> 100 µM	2.05 µM	> 100	0.338 µM	1.83	1.09 µM	45.6
O=C1NC(=N[C@@H](CO)c2ccccc2)S/C1=C\c1ccc2ncccc2c1	8.93 µM	> 25 µM	4.73 µM	12.9 µM	8.1 µM	> 25	13.8 µM	> 25 µM	8.1 µM	> 25 µM	3.65 µM	15.3	1.53 µM	12.7	> 25 µM	> 25
Nc1ncc(Cc2ccc3c(c2)OCO3)c(N)n1	–	> 100 µM	–	–	–	> 100	–	> 100 µM	–	> 100 µM	–	> 100	–	> 100	–	> 100
Nc1nc2c(c3cnccc13)C(c1ccc(Cl)c(Cl)c1)Cc1cnccc1-2 (stereo not drawn)	2.69 µM	15 µM	0.401 µM	1.86 µM	1.18 µM	6.68	0.615 µM	11.2 µM	0.463 µM	10.8 µM	0.241 µM	0.646	0.384 µM	> 100	0.544 µM	12.8
CC1(C)OC[C@@H]([C@@]2(CO[Si](c3ccccc3)(c3ccccc3)C(C)(C)C)CC=CC(=O)O2)O1	5.05 µM	> 100 µM	6.23 µM	> 100 µM	5.39 µM	35.9	12.7 µM	> 100 µM	33 µM	> 100 µM	4.98 µM	31.2	4.1 µM	16.6	5.92 µM	> 100
CCN(C)c1nc(N(C)CC)c2nc(N(C)CC)nc(N(C)CC)c2n1	–	> 100 µM	–	> 100 µM	–	> 100	–	> 100 µM	–	> 100 µM	–	> 100	–	> 100	–	> 100
N#CC1c2ccccc2C=CN1C(=O)CCCl (stereo not drawn)	14.4 µM	30.6 µM	13.6 µM	28 µM	15.6 µM	34.9	9.04 µM	21.9 µM	17.2 µM	31.3 µM	12.4 µM	27.1	3.07 µM	26.7	14.1 µM	28.5
Cc1nn(-c2ccc(Cl)cc2)c2ncnc(N/N=C/c3ccccc3O)c12	0.42 µM and 0.361 µM	43.2 µM and > 100 µM	1.24 µM and 1.59 µM	37.2 µM and > 100 µM	0.804 µM and 0.473 µM	> 91.7	0.488 µM and 0.472 µM	16.4 µM and > 100 µM	0.615 µM and 0.427 µM	26.5 µM and 10.8 µM	1.1 µM and 0.571 µM	> 100	0.445 µM and 0.206 µM	43.5	1.09 µM and 0.568 µM	> 100
CSC1=Nc2c(c(C)c(C)n2COC(CO)CO)C2=NC(=O)CN12	> 100 µM	> 100 µM	> 100 µM	> 100 µM	> 100 µM	> 100	> 100 µM	> 100 µM	> 100 µM	> 100 µM	> 100 µM	> 100	> 100 µM	> 100	> 100 µM	> 100
CC(=O)ON1CCCC(P(=O)(OCOC(=O)C(C)(C)C)OCOC(=O)C(C)(C)C)C1=O (stereo not drawn)	0.324 µM	–	1.58 µM	6.91 µM	0.314 µM	2.38	1.47 µM	17.4 µM	0.923 µM	13.3 µM	2.02 µM	15	0.309 µM	2.34	1.23 µM	17.4
CC1(C)N=C(N)N=C(N)N1c1ccc(CCC(=O)Nc2ccc(S(=O)(=O)F)cc2)cc1	5.08 µM	> 100 µM	26.4 µM	> 100 µM	1.59 µM	> 100	0.871 µM	> 100 µM	> 70.2 µM	> 100 µM	0.461 µM	> 100	0.209 µM	> 100	0.0593 µM	> 72.1
CCN(CC)Cc1cc(Nc2nc(NC3CCC(N(C)C)CC3)c3ccccc3n2)ccc1OC (stereo not drawn)	3.08 µM	13.2 µM	3.09 µM	7.52 µM	11.3 µM	24.5	10.5 µM	22.2 µM	–	–	3.05 µM	11.9	2.13 µM	4.74	6.97 µM	24.3
COc1ccc2sc3c(NCCCN)nc4ccccc4c3c(=O)c2c1	–	–	2 µM	3.98 µM	1.63 µM	3.11	1.81 µM	3.31 µM	1.61 µM	3.66 µM	1.74 µM	3.21	0.832 µM	3.22	1.5 µM	3.05
